Where two headings read alike, the source gives them in different places.
Columns and labels:
Assay in all cases: 72-hour CellTiter-Glo 2.0 growth inhibition screen (single agent, 9x9 combination dose matrix);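 for Best CI Level: inhibition effect level at which the best CI was calculated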
Format in all cases: cell-based
Gp2D = settings: for EC50: GP2d
HCC1171 = system: HCC1171;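 for Best CI Level: inhibition effect level at which the best CI was calculated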
Panc 04.03 = settings: for EC50 / Response Area: Panc 04.03, Pancreas
SW48 KRAS (G12C/+) = settings: for EC50: SW48, 72 h, read-out: EC50
TOV-21G = system: TOV-21G;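 for Best CI Level: inhibition effect level at which the best CI was calculated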
[1] = Gp2D (KRAS G12D), enhancer + MEI-522 (Voruciclib), 72 h;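 for Best CI Level: inhibition effect level at which the best CI was calculated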
[2] = Gp2D, Colorectal, Additional Single Agent Responses (inhibition, % I), 72 h
[3] = enhancer combined with MEI-522 (Voruciclib), Gp2D (Colorectal), 72 hours, inhibition data
[4] = HCC1171 (KRAS G12C), enhancer + MEI-522 (Voruciclib), 72 h;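 for Best CI Level: inhibition effect level at which the best CI was calculated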
[5] = HCC1171, Lung, Additional Single Agent Responses (inhibition, % I), 72 h
[6] = enhancer combined with MEI-522 (Voruciclib), HCC1171 (Lung), 72 hours, inhibition data
[7] = Panc 04.03 (KRAS G12D), enhancer + MEI-522 (Voruciclib), 72 h;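 for Best CI Level: inhibition effect level at which the best CI was calculated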
[8] = enhancer combined with MEI-522 (Voruciclib), Panc 04.03 (Pancreas), 72 hours, inhibition data
[9] = Homo sapiens, SW48 KRAS (G12C/+), Colorectal, Additional Single Agent Responses (inhibition, % I), 72 h
[10] = Homo sapiens, SW48 KRAS (G12C/+), Colorectal, growth inhibition (GI) curve, single agent, 72 h
[11] = SW48 KRAS (G12C/+), enhancer + MEI-522 (Voruciclib), 72 h
[12] = enhancer combined with MEI-522 (Voruciclib), SW48 KRAS (G12C/+) (Colorectal), 72 hours, inhibition data
[13] = TOV-21G (KRAS G13C), enhancer + MEI-522 (Voruciclib), 72 h;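 for Best CI Level: inhibition effect level at which the best CI was calculated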
[14] = enhancer combined with MEI-522 (Voruciclib), TOV-21G (Ovary), 72 hours, inhibition data

EC50 (HCC1171; [5]): 4.7 nM
GI50 (HCC1171; HCC1171, Lung, growth inhibition (GI) curve, single agent, 72 h): 5.3 nM
GI50 (Panc 04.03; Homo sapiens, Panc 04.03, 72 h): 4.6 nM
IC50 (Panc 04.03; Homo sapiens, Panc 04.03, 72 h): 5.9 nM
EC50 (Panc 04.03; Homo sapiens, Panc 04.03, 72 h, Additional Single Agent Responses (inhibition, % I), 72 h): 4.2 nM
EC50 (Panc 04.03; Homo sapiens, Panc 04.03, 72 h, growth inhibition (GI) curve, single agent, 72 h): 4.2 nM
EC50 (SW48 KRAS (G12C/+); [9]): 4.3 nM
EC50 (SW48 KRAS (G12C/+); [10]): 4.4 nM
IC50 (SW48 KRAS (G12C/+); [9]): 4.6 nM
GI50 (SW48 KRAS (G12C/+); [10]): 4.4 nM
SMILES: CC[C@@H]1C(=O)N(C)c2cnc(Nc3ccc(C(=O)N[C@H]4CC[C@H](N5CCN(CC6CC6)CC5)CC4)cc3OC)nc2N1C(C)C [Volasertib]
EC50 (Gp2D; 72 h, Colorectal, Additional Single Agent Responses (inhibition, % I)): 2.1 nM
EC50 (Gp2D; 72 h, Colorectal, growth inhibition (GI) curve, single agent): 2.5 nM
Best CI (Gp2D; [1]): 0.59
Bliss Volume (Gp2D; [1]): 9.40
HSA volume (Gp2D; [1]): 0.44
Loewe Volume (Gp2D; [1]): 1.73
Synergy Score (Gp2D; [1]): 15.26
IC50 (Gp2D; [2]): 2.4 nM
Response Area (Gp2D; [2]): 4.53
Emax (Gp2D; Gp2D, Colorectal, Additional Single Agent Responses, 72 h, read-out: Max Response (% I)): 91%
GI50 (Gp2D; Gp2D, Colorectal, growth inhibition (GI) curve, single agent, 72 h): 2.2 nM
Response Area (Gp2D; Gp2D, Colorectal, growth inhibition (GI), AUC, single agent, 72 h): 6.83
Emax (Gp2D; Gp2D, Colorectal, growth inhibition (GI), single agent, 72 h, read-out: Max Response (% GI)): 161%
Best CI (Gp2D; [3]): 0.16
Best CI Level (Gp2D; [3]): 80
Bliss Volume (Gp2D; [3]): −1.26
HSA volume (Gp2D; [3]): −0.27
Loewe Volume (Gp2D; [3]): −0.15
Synergy Score (Gp2D; [3]): 2.39
Best CI (HCC1171; [4]): 0.95
Bliss Volume (HCC1171; [4]): −2.15
HSA volume (HCC1171; [4]): −1.49
Loewe Volume (HCC1171; [4]): −1.27
Synergy Score (HCC1171; [4]): 2.07
Response Area (HCC1171; [5]): 1.99
Emax (HCC1171; HCC1171, Lung, Additional Single Agent Responses, 72 h, read-out: Max Response (% I)): 45%
Response Area (HCC1171; HCC1171, Lung, growth inhibition (GI), AUC, single agent, 72 h): 3.40
Emax (HCC1171; HCC1171, Lung, growth inhibition (GI), single agent, 72 h, read-out: Max Response (% GI)): 79%
Best CI (HCC1171; [6]): 0.79
Bliss Volume (HCC1171; [6]): −3.18
HSA volume (HCC1171; [6]): −0.81
Loewe Volume (HCC1171; [6]): −0.71
Synergy Score (HCC1171; [6]): 0.73
Best CI Level (HCC1171; enhancer combined with MEI-522 (Voruciclib), HCC1171 (Lung), 72 hours, inhibition data, unit assumed): 50%
Emax (Panc 04.03; Homo sapiens, Panc 04.03, 72 h, read-out: Max Response (% GI)): 87%
Emax (Panc 04.03; Homo sapiens, Panc 04.03, 72 h, read-out: Max Response (% I)): 64%
Best CI (Panc 04.03; [7]): 0.74
Bliss Volume (Panc 04.03; [7]): 4.14
HSA volume (Panc 04.03; [7]): 2.74
Loewe Volume (Panc 04.03; [7]): 1.36
Synergy Score (Panc 04.03; [7]): 7.71
Response Area (Panc 04.03; Additional Single Agent Responses (inhibition, % I), 72 h): 2.78
Response Area (Panc 04.03; growth inhibition (GI), AUC, single agent, 72 h): 3.75
Best CI (Panc 04.03; [8]): 0.67
Best CI Level (Panc 04.03; [8]): 80
Bliss Volume (Panc 04.03; [8]): −0.87
HSA volume (Panc 04.03; [8]): 1.03
Loewe Volume (Panc 04.03; [8]): 0.18
Synergy Score (Panc 04.03; [8]): 2.30
Emax (SW48 KRAS (G12C/+); Homo sapiens, SW48 KRAS (G12C/+), Colorectal, Additional Single Agent Responses, 72 h, read-out: Max Response (% I)): 90%
Emax (SW48 KRAS (G12C/+); Homo sapiens, SW48 KRAS (G12C/+), Colorectal, growth inhibition (GI), single agent, 72 h, read-out: Max Response (% GI)): 141%
Response Area (SW48 KRAS (G12C/+); SW48 KRAS (G12C/+), Colorectal, Additional Single Agent Responses (inhibition, % I), 72 h): 3.98
Response Area (SW48 KRAS (G12C/+); SW48 KRAS (G12C/+), Colorectal, growth inhibition (GI), AUC, single agent, 72 h): 5.48
Best CI (SW48 KRAS (G12C/+); [11]): 0.08
Bliss Volume (SW48 KRAS (G12C/+); [11]): 5.42
HSA volume (SW48 KRAS (G12C/+); [11]): 1.24
Loewe Volume (SW48 KRAS (G12C/+); [11]): 2.81
Synergy Score (SW48 KRAS (G12C/+); [11]): 11.77
Best CI (SW48 KRAS (G12C/+); [12]): 0.13
Best CI Level (SW48 KRAS (G12C/+); [12]): 80
Bliss Volume (SW48 KRAS (G12C/+); [12]): −0.04
HSA volume (SW48 KRAS (G12C/+); [12]): 0.65
Loewe Volume (SW48 KRAS (G12C/+); [12]): 1.39
Synergy Score (SW48 KRAS (G12C/+); [12]): 3.33
EC50 (TOV-21G; Homo sapiens, TOV21G, 72 h, TOV-21G, Ovary, Additional Single Agent Responses (inhibition, % I)): 10 nM
EC50 (TOV-21G; Homo sapiens, TOV21G, 72 h, TOV-21G, Ovary, growth inhibition (GI) curve, single agent): 13.8 nM
IC50 (TOV-21G; Homo sapiens, TOV21G, TOV-21G, Ovary, Additional Single Agent Responses (inhibition, % I), 72 h): 11.6 nM
Emax (TOV-21G; Homo sapiens, TOV21G, TOV-21G, Ovary, Additional Single Agent Responses, 72 h, read-out: Max Response (% I)): 89%
GI50 (TOV-21G; Homo sapiens, TOV21G, TOV-21G, Ovary, growth inhibition (GI) curve, single agent, 72 h): 8.4 nM
Emax (TOV-21G; Homo sapiens, TOV21G, TOV-21G, Ovary, growth inhibition (GI), single agent, 72 h, read-out: Max Response (% GI)): 163%
Best CI (TOV-21G; [13]): 0.56
Bliss Volume (TOV-21G; [13]): 2.45
HSA volume (TOV-21G; [13]): −4.18
Loewe Volume (TOV-21G; [13]): −6.03
Synergy Score (TOV-21G; [13]): 1.71
Response Area (TOV-21G; TOV-21G, Ovary, Additional Single Agent Responses (inhibition, % I), 72 h): 4.33
Response Area (TOV-21G; TOV-21G, Ovary, growth inhibition (GI), AUC, single agent, 72 h): 7.56
Best CI (TOV-21G; [14]): 0.76
Best CI Level (TOV-21G; [14]): 20
Bliss Volume (TOV-21G; [14]): −1.60
HSA volume (TOV-21G; [14]): −1.29
Loewe Volume (TOV-21G; [14]): −1.80
Synergy Score (TOV-21G; [14]): 0.60
